The values below come from US20160068883A1, “MICRO-FLUIDIC MIXER AND METHOD OF DETERMINING PATHOGEN INACTIVATION VIA ANTIMICROBIAL SOLUTIONS” (The United States of America, as represented by the …, priority 2014, published 2016).

In one experiment the test system is E. coli O157:H7. As to the kind of experiment: E. coli O157:H7 inactivation by free chlorine in the micro-fluidic mixer (MPN enumeration). Type of experiment: cell-based, Escherichia coli O157:H7 (RM4406, ATCC 700728).
The next experiment concerns E. coli. As to the kind of experiment: Decimal reduction time (D-value) calculated from the Watson and Hom inactivation models. Also on record: species or system Escherichia coli O157:H7. An excerpt: Kinetic modeling was also applied to simplify the complicated disinfection phenomena of produce wash system. Three models that are commonly used for studying bacterial disinfection kinetics with chemical-based disinfectant, including the Chick-Watson Model, the Hom Model, and the Selleck Model.
Watson developed an empirical logarithmic equation to relate the inactivation constant (k) to disinfectant concentration (C) and reaction time (t):
The Hom model is a generalized empirical equation of the Chick-Watson model considering chlorine disinfection as a pseudo first-order reaction:
The D-value here was calculated based on the empirical models developed in this study, namely the Watson model (equation 3) and the Hom model (equation 5). […] By increasing chlorine concentration to […], the D-value reduces to […] respectively.

Values joined by “and” are separate entries in the source; they are usually repeats but may differ in a detail not shown here. Equal values may be shown once.

Consider `OCl` [free chlorine, hypochlorous acid], for which the “contact time to achieve a 5-log reduction” value in the experiment on E. coli O157:H7 (1 mg/L free chlorine) is “more than 1.2 second”; with E. coli O157:H7 (5 mg/L free chlorine), 0.50 second; with E. coli O157:H7 (10 mg/L free chlorine), 0.25 second and 0.2 second; with E. coli O157:H7 (10 mg/L free chlorine, listed as chlorine), 0.2 second; in the experiment on E. coli O157:H7 (20 mg/L free chlorine) it was 0.25 second. For the same molecule, the “log reduction of E. coli O157:H7” value turned out to be 0.14 log with E. coli O157:H7 (1.0 mg/L free chlorine, 0.25 second contact, suspension 1×10^8 CFU/mL); 4.97 log with E. coli O157:H7 (1.0 mg/L free chlorine, 1.00 second contact, suspension 1×10^8 CFU/mL); 5.77 log in the experiment with E. coli O157:H7 (10.0 mg/L free chlorine, 0.25 second contact). Also, the “bacterial survival in collected effluent (total pathogen inactivation control)” value in the experiment on E. coli O157:H7 (chlorine 50 mg/L, pathogen solution 10^8 MPN/mL, without dechlorinating solution) was “no bacterial survival detected”. The “D-value (decimal reduction time, 90% / one log reduction)” value in the experiment on E. coli (1 mg/L free chlorine) is recorded as 28.06 milliseconds; in the experiment on E. coli (chlorine 5 (so in the source)) it was 5.72 milliseconds; in the experiment on E. coli (chlorine 10 (so in the source)) it was 2.87 milliseconds; in the experiment with E. coli (chlorine 20 (so in the source)), 1.43 milliseconds.
